From US6642392B1 (priority 1997, dated 2003)

Legend:
Type in all cases: in vivo
Puccinia recondita = assay: Test B: wheat leaf rust, preventive spray on wheat seedlings; conditions: wheat seedlings sprayed to run-off, inoculated the following day; rating relative to controls; unmarked compounds (standard test rate)
How it was run: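 Preventive test: P. recondita spores were applied one day after a run-off spray of compound suspension on wheat seedlings. Plants had 24 h at 20 °C in saturated air plus 6 days in a 20 °C growth chamber. Scoring is % disease control (100 = full) relative to controls.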

Botrytis cinerea = assay: Test E: gray mold, preventive spray on cucumber seedlings; conditions: cucumber seedlings sprayed to run-off, inoculated the following day; rating relative to controls; unmarked compounds (standard test rate)
How it was run: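 Preventive spray on cucumber seedlings used a suspension (3% acetone, 250 ppm Trem 014), applied to run-off one day before inoculation with Botrytis cinerea spores. Plants were held 48 h at 20° C in saturated air, then 5 days at 20° C. Percent disease control was scored relative to untreated plants.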

Pyricularia oryzae = conditions: rice seedlings sprayed to run-off, inoculated the following day; rating relative to controls; unmarked compounds (standard test rate)
[1] = system: Eiysiphe graminis f. sp. tritici; assay: Test A: wheat powdery mildew, preventive spray on wheat seedlings; conditions: wheat seedlings sprayed to run-off, inoculated the following day; rating relative to controls; unmarked compounds (standard test rate)
How it was run: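 Preventive test: seedlings inoculated with powdery mildew spores one day after run-off spraying of a suspension. Ratings after 7 days in a 20° C growth chamber express percent disease control versus controls.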

Phytophthora infestans = conditions: tomato seedlings sprayed to run-off, inoculated the following day; rating relative to controls; unmarked compounds (standard test rate)

| SMILES | Test B disease control rating (100 = 100% disease control, 0 = no disease control) (Puccinia recondita) [%] | Test E disease control rating (100 = 100% disease control, 0 = no disease control) (Botrytis cinerea) [%] | Test C disease control rating (100 = 100% disease control, 0 = no disease control) (Pyricularia oryzae) [%] | Test A disease control rating (100 = 100% disease control, 0 = no disease control) [1] [%] | Test D disease control rating (100 = 100% disease control, 0 = no disease control) (Phytophthora infestans) [%] |
| --- | --- | --- | --- | --- | --- |
| CC(C=Cc1ccccc1)NC(=O)C(C#N)C(C)(C)C (mixture of isomers) [compound 228] | 0 | 47 | 52 | 95 | 7 |
| CCC1(C(=O)NC(C)CCc2ccccc2)C(C)C1(Cl)Cl (mixture of isomers) [compound 244] | 0 | 0 | 99 | 86 | 74 |
| C=CCc1cccc(C#N)c1OCC(C)NC(=O)C1(CC)C(C)C1(Cl)Cl (mixture of isomers) [compound 254] | 0 | 0 | 53 | 0 | 0 |
| CCCc1cccc(C#N)c1OCC(C)NC(=O)C1(CC)C(C)C1(Cl)Cl (mixture of isomers) [compound 255] | 0 | 0 | 74 | 28 | 0 |
| CCC1(C(=O)NC(C)COc2cc(OC(F)F)ccc2C#N)C(C)C1(Cl)Cl (mixture of isomers) [compound 256] | 0 | 0 | 0 | 56 | 0 |
| CCC1(C(=O)NC(C)COc2cc(F)c(F)cc2C#N)C(C)C1(Cl)Cl (mixture of isomers) [compound 257] | 0 | 0 | 0 | 0 | 0 |
| CCC1(C(=O)NC(C)COc2c(F)ccc(F)c2C#N)C(C)C1(Cl)Cl (mixture of isomers) [compound 258] | 27 | 0 | 94 | 74 | 0 |
| CCC1(C(=O)NC(C)COc2c(C)cccc2C#N)C(C)C1(Cl)Cl (mixture of isomers) [compound 259] | 0 | 48 | 91 | 84 | 0 |
| CCC1(C(=O)NC(C)COc2c(Cl)cccc2C#N)C(C)C1(Cl)Cl (mixture of isomers) [compound 260] | 0 | 83 | 74 | 0 | 24 |
| CCC1(C(=O)NC(C)C=Cc2ccc(F)cc2)C(C)C1(Cl)Cl (mixture of isomers) [compound 261] | 0 | 0 | 100 | 0 | 54 |
| CCC1(C(=O)NC(C)C=Cc2ccccc2)C(C)C1(Cl)Cl (mixture of isomers) [compound 263] | 0 | 0 | 86 | 86 | 33 |
| C=CCc1cccc(C#N)c1OCC(C)NC(=O)C(C#N)C(C)C(C)(C)C (mixture of isomers) [compound 275] | 0 | 99 | 53 | 0 | 0 |
| CCCc1cccc(C#N)c1OCC(C)NC(=O)C(C#N)C(C)C(C)(C)C (mixture of isomers) [compound 276] | 0 | 94 | 0 | 0 | 0 |
| CC(COc1cc(OC(F)F)ccc1C#N)NC(=O)C(C#N)C(C)C(C)(C)C (mixture of isomers) [compound 277] | 0 | 0 | 0 | 0 | 0 |
| CC(COc1cc(F)c(F)cc1C#N)NC(=O)C(C#N)C(C)C(C)(C)C (mixture of isomers) [compound 278] | 67 | 94 | 32 | 56 | 0 |
| CC(COc1c(F)ccc(F)c1C#N)NC(=O)C(C#N)C(C)C(C)(C)C (mixture of isomers) [compound 279] | 0 | 0 | 0 | 56 | 0 |
| Cc1cccc(C#N)c1OCC(C)NC(=O)C(C#N)C(C)C(C)(C)C (mixture of isomers) [compound 280] | 0 | 0 | 74 | 56 | 0 |
